In paper PMC5112578, “Zika antiviral chemotherapy: identification of drugs and promising starting points for drug discovery from an FDA-approved library” (F1000Research, 2016):
Structures can show the parent of a compound that is named as a salt. Where two headings read alike, the source gives them in different places. Numbered stars: 1 amine (or outer) side, 2 acyl side, 3 side chain; on linkers, the order of the positions; unused ones are H or OH. Bridge positions count the residues as written; N and C are the ends. Square brackets hold non-standard residues; d marks the D form. Peptide text beside a SMILES is read from it. I, II: the chains in the order shown. Actinocin(9to1) = Cc1c2oc3c(C)ccc(C(=O)[*:1])c3nc-2c(C(=O)[*:2])c(N)c1=O; NMeV = CN[C@H](C(=O)O)C(C)C; Sar = CNCC(=O)O

How the values were obtained:
Zika virus (ZIKV) [1] = test system: Zika virus (ZIKV)
[2] = Table 2; no reference given; cited from earlier work
Zika virus (ZIKV) [3] = assay: ZIKV high content screening assay (infection ratio by immunofluorescence in Huh7); settings: for Max. Activity (% of infection inhibition) / S.I. (CC 50/EC 50): Table 2; for Max. Activity (% of infection inhibition): dose-response; for Max. Activity (% of infection inhibition) / activity: Huh7, ZIKV, 72 h; for activity: in our assay, library screened at 20 µM; for S.I. (CC 50/EC 50): SI = CC50/EC50, Huh7; for SI: SI = CC50/EC50
Huh7 cells = assay: Cell toxicity / cell ratio in the ZIKV high content assay; settings: for toxicity: in our assay, library screened at 20 µM, Huh7, 72 h; for CC50: Table S2, 50% reduction in cell viability vs infected IFNα2A treated cells, 72 h
[4] = in humans; no reference given; cited from earlier work
[5] = Table S2, 9 point DRC from 50 µM, Huh7, ZIKV MOI 0.5, 72 h

| SMILES | CC50 (Huh7 cells) [µM] | EC50 (Zika virus (ZIKV) [3]; [5]) [µM] | SI (Zika virus (ZIKV) [3]; Table S2) | also measured |
| --- | --- | --- | --- | --- |
| O=c1[nH]cc(F)c(=O)[nH]1 [5-Fluorouracil] | – | – | – | S.I. (CC 50/EC 50) (Zika virus (ZIKV) [1]): > 2.5; Water Solubility [2]: 12500 µg/mL; Max. Activity (% of infection inhibition) (Zika virus (ZIKV) [3]): 57%; EC50 (Zika virus (ZIKV) [3]; Zika virus, Huh-7, 72 h): 14.3 ± 8.6 µM |
| O=c1cnn([C@@H]2O[C@H](CO)[C@@H](O)[C@H]2O)c(=O)[nH]1 [6-Azauridine] | – | – | – | Water Solubility (mg/mL) [2]: Very high; Max. Activity (% of infection inhibition) (Zika virus (ZIKV) [3]): 88.3%; EC50 (Zika virus (ZIKV) [3]; Zika virus, Huh-7, 72 h): 2.3 ± 0.1 µM |
| Cn1cnc([N+](=O)[O-])c1Sc1ncnc2nc[nH]c12 [Azathioprine] | – | – | – | toxicity (Huh7 cells): higher than 50% |
| CC(C)/N=c1\cc2n(-c3ccc(Cl)cc3)c3ccccc3nc-2cc1Nc1ccc(Cl)cc1 [Clofazimine] | – | – | – | activity (Zika virus (ZIKV) [3]): lower than 50% |
| Cc1c2oc3c(C)ccc(C(=O)N[C@@H]4C(=O)N[C@H](C(C)C)C(=O)N5CCC[C@H]5C(=O)N(C)CC(=O)N(C)[C@@H](C(C)C)C(=O)O[C@@H]4C)c3nc-2c(C(=O)N[C@@H]2C(=O)N[C@H](C(C)C)C(=O)N3CCC[C@H]3C(=O)N(C)CC(=O)N(C)[C@@H](C(C)C)C(=O)O[C@@H]2C)c(N)c1=O [Dactinomycin] (I: T[dV]P[Sar][NMeV] / II: T[dV]P[Sar][NMeV]; ester I:1-I:C, II:1-II:C; linker I:N-II:N via Actinocin(9to1)) | – | – | – | toxicity (Huh7 cells): higher than 50% |
| C[C@H]1O[C@@H](O[C@H]2[C@@H](O)C[C@H](O[C@H]3[C@@H](O)C[C@H](O[C@H]4CC[C@@]5(C)[C@H](CC[C@@H]6[C@@H]5C[C@@H](O)[C@]5(C)[C@@H](C7=CC(=O)OC7)CC[C@]65O)C4)O[C@@H]3C)O[C@@H]2C)C[C@H](O)[C@@H]1O [Digoxin] | – | – | – | toxicity (Huh7 cells): higher than 50% |
| CO[C@@H]1[C@@H](O[C@@H]2O[C@H](C)[C@@H](O[C@H]3C[C@@](C)(O)[C@@H](OC(=O)CC(C)C)[C@H](C)O3)[C@H](N(C)C)[C@H]2O)[C@@H](CC=O)C[C@@H](C)[C@@H](O)/C=C/C=C/C[C@@H](C)OC(=O)C[C@H]1O [Kitasamycin] | – | – | – | Water Solubility [2]: 50 µg/mL; S.I. (CC 50/EC 50) (Zika virus (ZIKV) [3]): > 1.2; Max. Activity (% of infection inhibition) (Zika virus (ZIKV) [3]): 69.1%; EC50 (Zika virus (ZIKV) [3]; Zika virus, Huh-7, 72 h): 41.7 ± 10.1 µM |
| CC[C@H](C)C(=O)O[C@H]1C[C@@H](C)C=C2C=C[C@H](C)[C@H](CC[C@@H]3C[C@@H](O)CC(=O)O3)[C@H]21 [Lovastatin] | – | – | – | S.I. (CC 50/EC 50) (Zika virus (ZIKV) [3]): > 2.5; Max. Activity (% of infection inhibition) (Zika virus (ZIKV) [3]): 60.7%; EC50 (Zika virus (ZIKV) [3]; Zika virus, Huh-7, 72 h): 20.7 ± 8.6 µM |
| COC(=O)Nc1nc2ccc(C(=O)c3ccccc3)cc2[nH]1 [Mebendazole] | – | – | – | toxicity (Huh7 cells): higher than 50% |
| OC(c1cc(C(F)(F)F)nc2c(C(F)(F)F)cccc12)C1CCCCN1 (centres unmarked) [Mefloquine] | – | – | – | toxicity (Huh7 cells): higher than 50% |
| S=c1[nH]cnc2nc[nH]c12 [Mercaptopurine] | – | – | – | activity (Zika virus (ZIKV) [3]): lower than 50% |
| COc1c2occc2cc2ccc(=O)oc12 [Methoxsalen] | – | – | – | activity (Zika virus (ZIKV) [3]): lower than 50% |
| O=C1c2cccc3c2[C@H](CCC3)CN1[C@@H]1CN2CCC1CC2 [Palonosetron] | – | – | – | S.I. (CC 50/EC 50) (Zika virus (ZIKV) [1]): > 3.06; Water Solubility (mg/mL) [2]: Very high; bioavailability [4]: 97%; Max. Activity (% of infection inhibition) (Zika virus (ZIKV) [3]): 97.7%; EC50 (Zika virus (ZIKV) [3]; Zika virus, Huh-7, 72 h): 16.3 ± 7.7 µM |
| Clc1ccc2c(c1)CCc1cccnc1C2=C1CCNCC1 [SAM001246545] | 20.7 ± 4.1 | – | – | – |
| Cc1ccc(NC(=O)c2ccc(CN3CCN(C)CC3)cc2)cc1Nc1nccc(-c2cccnc2)n1 [SAM001246622] | – | 13.3 ± 5.8 | – | – |
| COCCCC/C(=N\OCCN)c1ccc(C(F)(F)F)cc1.O=C(O)/C=C\C(=O)O [SAM001246977] | 24.3 ± 3.1 | 17 ± 3.6 | 1.43 | – |
| CN1CCN(CCCN2c3ccccc3Sc3ccc(Cl)cc32)CC1.O=C(O)/C=C\C(=O)O.O=C(O)/C=C\C(=O)O [SAM001247054] | 9 ± 4.4 | 10.3 ± 3.1 | 0.87 | – |
| Clc1ccccc1C(c1ccccc1)(c1ccccc1)n1ccnc1 [SAM001247056] | 8.7 ± 1.2 | 14.3 ± 3.5 | 0.6 | – |
| CC(C)c1ccc2c(c1)c(SC(C)(C)C)c(CC(C)(C)C(=O)O)n2Cc1ccc(Cl)cc1 [SAM001247075] | 33.7 ± 10.8 | 12 ± 1.7 | 2.8 | – |
| Oc1cc2c(cc1O)[C@H]1c3ccccc3CN[C@@H]1CC2 [SAM001247083] | 16.5 | 21.5 ± 0.7 | – | – |
| N=C(NCc1ccc(Cl)cc1)SCCCc1c[nH]cn1 [SAM001247107] | 19.3 ± 9.7 | 14 | 1.38 | – |
| CC(CN1c2ccccc2Sc2ccccc21)N(C)C.Cl (centres unmarked) [SAM002264636] | 28.3 ± 17.6 | 19.7 ± 4.5 | 1.44 | – |
| CN1C2CCC1CC(OC(c1ccccc1)c1ccccc1)C2.CS(=O)(=O)O (centres unmarked) [SAM002548938] | 31.3 ± 15.3 | 21.3 ± 10 | 1.47 | – |
| Clc1ccc2c(c1)C(N1CCNCC1)=Nc1ccccc1O2 [SAM002564189] | 11.7 ± 11 | 19.3 ± 5.5 | 0.6 | – |
| CN[C@H]1CC[C@@H](c2ccc(Cl)c(Cl)c2)c2ccccc21 [Sertraline-HCl] | – | – | – | activity (Zika virus (ZIKV) [3]): lower than 50% |
